Laboratory results: PMC12670164, “In vitro and clinical data demonstrate negligible risk of drug–drug interactions with opelconazole, a novel inhaled antifungal agent” (Journal of Antimicrobial Chemotherapy, 2025)
Where two headings read alike, the source gives them in different places.

Tests used:
CYP3A4 [1] = system: CYP3A4
Procedure: The potential for opelconazole to act as an inducer of CYP isoforms CYP1A2, CYP2B6 and CYP3A4 was assessed in vitro using an mRNA endpoint across three donors in cryopreserved human hepatocytes.
A cytotoxicity assessment using MTT was performed in one of the three donors used for the induction studies prior to dosing.

CYP2C9 = CYP2C9 (Homo sapiens, UniProt P11712); assay: Reaction phenotyping with recombinant CYP enzymes (opelconazole as substrate); type: in vitro ADME; details: incubated with 0.01 and 0.1 µM opelconazole
Procedure: (§1) The testing of opelconazole as a potential substrate of CYP1A2, 2B6, 2C8, 2C9, 2C19, 2D6 and 3A4 was determined in vitro using recombinant CYP enzymes. Two concentrations of opelconazole (0.01 and 0.1 µM) were tested with each of the seven CYPs.
(§2) The relative contributions of CYP3A4 and CYP2C9 were ∼75% and 25%, respectively, when incubated with 0.01 and 0.1 µM opelconazole.

[2] = system: cryopreserved human hepatocytes; assay: MTT cytotoxicity assessment in hepatocytes; type: cell-based; details: up to 3 μM, one donor
Procedure: The hepatocyte cells were dosed with opelconazole (0.012, 0.03, 0.12, 0.3, 1.2 and 3 μM) and positive control compounds (omeprazole for CYP1A2 and rifampicin for CYP3A4).

[3] = system: Aspergillus fumigatus clinical strains; parameters: method as in PMID 33340279; details: cited from earlier work
BCRP = target: T1, BCRP (Homo sapiens, UniProt Q9UNQ0); assay: Transporter inhibition; type: in vitro ADME
T1 construct: expressed in transfected cells
T1 sequence (Q9UNQ0 1-655): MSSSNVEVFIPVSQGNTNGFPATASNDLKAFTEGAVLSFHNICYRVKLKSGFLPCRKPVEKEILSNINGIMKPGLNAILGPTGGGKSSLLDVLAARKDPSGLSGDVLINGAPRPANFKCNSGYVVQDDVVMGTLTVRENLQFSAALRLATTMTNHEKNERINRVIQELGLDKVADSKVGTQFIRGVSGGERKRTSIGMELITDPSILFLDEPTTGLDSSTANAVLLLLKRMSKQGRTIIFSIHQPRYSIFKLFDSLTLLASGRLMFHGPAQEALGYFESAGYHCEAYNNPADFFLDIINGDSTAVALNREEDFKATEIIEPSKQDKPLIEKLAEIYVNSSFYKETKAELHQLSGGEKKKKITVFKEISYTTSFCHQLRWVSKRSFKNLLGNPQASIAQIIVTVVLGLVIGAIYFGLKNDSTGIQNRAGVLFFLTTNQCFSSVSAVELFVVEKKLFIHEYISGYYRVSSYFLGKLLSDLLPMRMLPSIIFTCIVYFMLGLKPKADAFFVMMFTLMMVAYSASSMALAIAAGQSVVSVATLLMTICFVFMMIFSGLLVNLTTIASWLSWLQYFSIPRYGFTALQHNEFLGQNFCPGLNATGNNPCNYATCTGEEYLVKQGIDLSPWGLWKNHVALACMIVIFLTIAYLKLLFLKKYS
Procedure: (§3) Human transporter protein interactions with opelconazole as a potential substrate and/or inhibitor were assessed for the following key carrier transporters: organic anion transporters, OAT1 and OAT3; organic cation transporters, OCT1 and OCT2; OATP1B1 and OATP1B3; multidrug and toxin extrusion, MATE-1 and MATE2-K; key ATP-binding cassette (ABC) transporters including P-gp, breast cancer resistance protein (BCRP) and bile salt export pump (BSEP). Two concentrations of opelconazole, 0.5 and 5 μM, were tested using MDCKII cells, human embryonic kidney 293 cells and BSEP-transfected sf9 membrane vesicles and then analysed by LC-tandem MS to determine transporter inhibition and whether opelconazole was a transporter substrate. The viability of experimental test systems was confirmed with controls and known probe substrates and probe inhibitors.

OAT1 = target: T2, OAT1 (Homo sapiens, UniProt Q4U2R8); assay: Transporter inhibition; type: in vitro ADME; details: 0.5 and 5 μM tested
T2 construct: expressed in transfected cells
T2 sequence (Q4U2R8 1-563): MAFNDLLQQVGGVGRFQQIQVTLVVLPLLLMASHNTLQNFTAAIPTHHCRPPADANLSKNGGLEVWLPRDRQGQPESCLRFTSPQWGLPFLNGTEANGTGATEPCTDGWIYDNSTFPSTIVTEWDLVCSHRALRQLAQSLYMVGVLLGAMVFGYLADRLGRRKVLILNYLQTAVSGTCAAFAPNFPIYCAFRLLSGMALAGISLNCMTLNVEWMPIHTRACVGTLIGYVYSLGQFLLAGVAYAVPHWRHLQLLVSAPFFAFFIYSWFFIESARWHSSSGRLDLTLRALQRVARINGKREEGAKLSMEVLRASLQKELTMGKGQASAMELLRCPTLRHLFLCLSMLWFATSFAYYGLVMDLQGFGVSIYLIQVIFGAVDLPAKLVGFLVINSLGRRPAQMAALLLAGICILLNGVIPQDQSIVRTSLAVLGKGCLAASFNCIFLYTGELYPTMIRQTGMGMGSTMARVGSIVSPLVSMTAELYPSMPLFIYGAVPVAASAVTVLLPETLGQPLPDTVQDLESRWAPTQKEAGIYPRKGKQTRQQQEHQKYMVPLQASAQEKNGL
Procedure: as §3

OAT3 = target: T3, OAT3 (Homo sapiens, UniProt Q8TCC7); assay: Transporter inhibition; type: in vitro ADME; details: 0.5 and 5 μM tested
T3 construct: expressed in transfected cells
T3 sequence (Q8TCC7 1-542): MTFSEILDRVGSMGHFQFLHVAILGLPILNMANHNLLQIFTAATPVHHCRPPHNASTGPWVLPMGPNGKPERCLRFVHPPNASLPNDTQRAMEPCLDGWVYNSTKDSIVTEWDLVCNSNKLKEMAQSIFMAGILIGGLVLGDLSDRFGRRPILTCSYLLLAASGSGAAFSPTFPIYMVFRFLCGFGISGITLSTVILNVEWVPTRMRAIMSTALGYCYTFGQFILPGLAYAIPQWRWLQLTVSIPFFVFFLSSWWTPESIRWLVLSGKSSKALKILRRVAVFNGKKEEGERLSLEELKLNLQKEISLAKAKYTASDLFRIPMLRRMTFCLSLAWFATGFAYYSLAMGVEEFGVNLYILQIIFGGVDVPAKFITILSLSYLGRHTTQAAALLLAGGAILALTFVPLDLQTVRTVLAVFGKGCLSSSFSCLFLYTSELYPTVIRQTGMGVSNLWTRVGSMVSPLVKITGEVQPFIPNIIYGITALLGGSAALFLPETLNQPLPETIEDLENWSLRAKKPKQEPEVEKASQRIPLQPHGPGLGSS
Procedure: as §3

P-gp = target: T4, P-gp (Homo sapiens, UniProt P08183); assay: Transporter inhibition; type: in vitro ADME
T4 construct: expressed in transfected cells
Procedure: as §3

CYP3A4 [4] = target: CYP3A4 (Homo sapiens, UniProt P08684); type: in vitro ADME; details: incubated with 0.01 and 0.1 µM opelconazole
Procedure: as §1, §2

T4 sequence (P08183 whole entry): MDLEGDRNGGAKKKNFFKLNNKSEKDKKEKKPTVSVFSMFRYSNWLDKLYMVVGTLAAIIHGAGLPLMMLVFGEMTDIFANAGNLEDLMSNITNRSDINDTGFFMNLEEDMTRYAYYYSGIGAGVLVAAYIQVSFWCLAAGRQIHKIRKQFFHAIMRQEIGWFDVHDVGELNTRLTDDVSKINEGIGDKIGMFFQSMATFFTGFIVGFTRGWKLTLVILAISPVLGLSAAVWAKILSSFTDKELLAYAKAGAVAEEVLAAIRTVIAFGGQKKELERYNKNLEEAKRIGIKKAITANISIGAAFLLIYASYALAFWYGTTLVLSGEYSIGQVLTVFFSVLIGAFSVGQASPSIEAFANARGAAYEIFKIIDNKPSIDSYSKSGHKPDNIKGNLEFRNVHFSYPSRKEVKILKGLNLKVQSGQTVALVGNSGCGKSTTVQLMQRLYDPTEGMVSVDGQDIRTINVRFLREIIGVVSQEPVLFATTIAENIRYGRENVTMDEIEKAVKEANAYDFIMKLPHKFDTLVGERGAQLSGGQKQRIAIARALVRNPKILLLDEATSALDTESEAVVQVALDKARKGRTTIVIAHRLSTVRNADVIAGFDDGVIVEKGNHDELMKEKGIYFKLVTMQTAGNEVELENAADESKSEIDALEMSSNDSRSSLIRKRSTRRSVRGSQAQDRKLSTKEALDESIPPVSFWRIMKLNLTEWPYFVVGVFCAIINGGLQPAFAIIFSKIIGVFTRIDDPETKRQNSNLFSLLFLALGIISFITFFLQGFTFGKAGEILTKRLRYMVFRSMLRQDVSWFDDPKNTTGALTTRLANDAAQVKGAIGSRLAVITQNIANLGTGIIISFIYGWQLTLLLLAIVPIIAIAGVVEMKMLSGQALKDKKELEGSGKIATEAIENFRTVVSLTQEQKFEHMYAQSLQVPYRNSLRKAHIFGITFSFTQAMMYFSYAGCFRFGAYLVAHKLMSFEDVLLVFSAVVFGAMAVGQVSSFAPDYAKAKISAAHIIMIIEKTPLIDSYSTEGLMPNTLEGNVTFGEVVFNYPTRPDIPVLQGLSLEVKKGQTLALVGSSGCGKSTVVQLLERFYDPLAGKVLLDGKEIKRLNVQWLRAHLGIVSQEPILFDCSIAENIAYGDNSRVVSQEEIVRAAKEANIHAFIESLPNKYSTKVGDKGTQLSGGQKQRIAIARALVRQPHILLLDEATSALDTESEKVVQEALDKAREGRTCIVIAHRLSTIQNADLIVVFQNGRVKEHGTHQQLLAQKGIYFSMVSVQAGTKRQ
Sequence of CYP2C9 (P11712 whole entry): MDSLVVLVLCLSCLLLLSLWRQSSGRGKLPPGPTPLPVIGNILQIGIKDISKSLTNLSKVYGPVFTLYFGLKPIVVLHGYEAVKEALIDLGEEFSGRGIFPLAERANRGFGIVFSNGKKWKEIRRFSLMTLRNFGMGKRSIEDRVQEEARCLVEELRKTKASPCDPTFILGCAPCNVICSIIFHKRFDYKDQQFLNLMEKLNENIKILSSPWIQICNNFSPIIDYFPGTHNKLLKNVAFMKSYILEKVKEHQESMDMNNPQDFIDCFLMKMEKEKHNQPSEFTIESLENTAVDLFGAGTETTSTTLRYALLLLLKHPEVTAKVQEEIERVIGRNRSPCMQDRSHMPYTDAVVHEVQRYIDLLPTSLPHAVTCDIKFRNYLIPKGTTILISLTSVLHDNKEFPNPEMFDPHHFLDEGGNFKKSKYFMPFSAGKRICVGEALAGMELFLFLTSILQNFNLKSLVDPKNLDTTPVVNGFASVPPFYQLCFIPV
Sequence of CYP3A4 (Homo sapiens, UniProt P08684) (P08684 whole entry): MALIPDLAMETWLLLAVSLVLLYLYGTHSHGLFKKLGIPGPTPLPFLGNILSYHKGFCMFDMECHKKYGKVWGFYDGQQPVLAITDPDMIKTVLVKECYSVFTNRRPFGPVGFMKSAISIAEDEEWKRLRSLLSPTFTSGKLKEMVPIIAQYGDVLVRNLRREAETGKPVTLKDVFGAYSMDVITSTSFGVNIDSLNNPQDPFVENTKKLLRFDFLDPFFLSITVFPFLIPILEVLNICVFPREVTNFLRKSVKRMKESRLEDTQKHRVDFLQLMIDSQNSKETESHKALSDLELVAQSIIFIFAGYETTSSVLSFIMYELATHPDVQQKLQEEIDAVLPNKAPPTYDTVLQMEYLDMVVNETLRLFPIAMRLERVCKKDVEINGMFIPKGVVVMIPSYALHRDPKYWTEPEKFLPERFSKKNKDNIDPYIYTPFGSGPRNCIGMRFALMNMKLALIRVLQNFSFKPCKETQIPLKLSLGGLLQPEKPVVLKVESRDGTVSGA

Cc1cc(N2CCN(c3ccc(C(=O)Nc4ccc(F)cc4)cc3)CC2)ccc1OC[C@@H]1CO[C@@](Cn2cncn2)(c2ccc(F)cc2F)C1 [opelconazole]
CYP3A4 mRNA expression increase (CYP3A4 [1]; donor 1, only at 0.3 μM, 72 h): 2.17 fold
CYP3A4 mRNA expression increase (CYP3A4 [1]; donors 2 and 3, any concentration (0.012–3 μM)): < 2 fold
relative contribution of CYP2C9 to metabolism of opelconazole (CYP2C9): ~25%
cytotoxicity (MTT) [2]: no cytotoxicity was observed
minimal inhibitory concentration required to inhibit 90% of clinical strains [3]: 1 µg/mL
inhibition of BCRP relative to solvent control (BCRP; 0.5 μM opelconazole): 52%
inhibition of BCRP relative to solvent control (BCRP; 5 μM opelconazole): 56%
inhibitory interaction with OAT1 (OAT1): negligible inhibitory interactions
inhibitory interaction with OAT3 (OAT3): negligible inhibitory interactions
inhibitory interaction with P-gp (P-gp; 0.5 μM opelconazole): negligible inhibitory interactions
inhibition of P-gp relative to solvent control (P-gp; 5 μM opelconazole): 52%
relative contribution of CYP3A4 to metabolism of opelconazole (CYP3A4 [4]): ~75%
